Measured values as given in patent publication US6410533B1, “Antibacterial compounds” (Genzyme Corporation, priority 2000, dated 2002).
Values after ≈ are worked out from the molar mass of the structure shown. Where two headings read alike, the source gives them in different places.

Tests used:
[1] = test system: Staphylococcus aureus bacteria (ATCC 9604 SV); assay: Minimal inhibitory concentration (MIC), broth microdilution; format: cell-based; details: 24 h at 37° C.
Summary of the method: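 MIC: broth microdilution per NCCLS in Mueller-Hinton broth; overnight culture adjusted to 0.05 McFarland and diluted twenty-fold into compound-containing broth. IC50: inoculum at 0.1 McFarland diluted two-fold into TB broth with compound, 3–5 h at 37° C. Turbidity at 550 nm; IC50 is the concentration giving 50% growth inhibition.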

[2] = test system: Staphylococcus aureus bacteria (ATCC 9604 SV); assay: IC50 determination, growth inhibition by turbidity at 550 nm; format: cell-based; details: Staphylococcus aureus ATCC 9604 SV, turbidity at 550 nm after 3-5 h at 37° C.
Description: Minimal inhibitory concentrations (MICs) for Staphylococcus aureus bacteria (ATCC 9604 SV) were determined by broth microdilution methodology following National Committee for Clinical Laboratory Standards. In the MIC determinations, the compounds were incorporated into Mueller-Hinton broth (Becton Dickinson Microbiology systems, Cockeyville, Md.) at a series of concentrations. After the test organism was grown overnight in TB broth, the broths were adjusted to the turbidity equivalent to 0.05 McFarland standard. The suspensions were diluted twenty-fold into the broth containing the compounds. […] In the IC50 determination, the method was modified to allow the rapid growth of the organisms. The inoculum suspensions were adjusted to 0.1 McFarland standard and then diluted two-fold into the wells containing TB broth and the compounds. After three to five hours incubation at 37° C., the turbidity was measured at 550 nm and inhibitory activity was defined as the concentration of antimicrobial agent that inhibits 50% growth of the organism in the microdilution wells.

[3] = test system: methicillin-resistant Staphylococcus aureus (ATCC 33591); assay: In vivo mouse intraperitoneal infection, mortality and % survivors over 7 days; details: MRSA ATCC 33591 i.p., ICR mice; for In Vivo, double dose (% of mice rescued): 1 and 5 h post inoculation; for In Vivo, single dose (% of mice rescued): single dose 1 h post inoculation
Summary of the method: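 Survival and mortality were scored for 7 days after i.p. challenge of 20 g male ICR mice (n=10) with an LD90-100 inoculum (2-3×10^7 CFU/mouse) of MRSA ATCC 33591 in 5% mucin. Treatment was subcutaneous in 1% cremophore EL/saline, either once at 1 h or twice at 1 h and 5 h.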

[4] = ATCC9604, Staphylococcus aureus ATCC 9604 SV, read-out: MIC
[5] = Staphylococcus aureus ATCC 9604 SV

MIC [1, 5] [µg/mL]	IC50 [2] [nM]	SMILES	MIC [1, 4] [µg/mL]	IC50 ([2]; ATCC9604) [nM]	In Vivo, double dose (% of mice rescued) ([3]; 2 × 2 mg/kg s.c.) [% @ 2 × 2 mg/kg]	In Vivo, double dose (% of mice rescued) ([3]; 2 × 20 mg/kg s.c.) [% @ 2 × 20 mg/kg]	In Vivo, single dose (% of mice rescued) ([3]; 2 mg/kg s.c.) [% @ 2 mg/kg]	In Vivo, single dose (% of mice rescued) ([3]; 20 mg/kg s.c.) [% @ 20 mg/kg]
10.2 (≈ 24.9 µM)	612	C=CCCc1csc(NC(=O)Nc2cc(C(F)(F)F)cc(C(F)(F)F)c2)n1 [Compound 126]	–	–	–	–	–	–
>20.7	29300	O=C(O)Cc1csc(NC(=O)Nc2cc(C(F)(F)F)cc(C(F)(F)F)c2)n1 [Compound 127]	–	–	–	–	–	–
11.4 (≈ 25 µM)	944	CCOC(=O)C(=O)c1csc(NC(=O)Nc2cc(C(F)(F)F)cc(C(F)(F)F)c2)n1 [Compound 129]	–	–	–	–	–	–
1.34 (≈ 3.01 µM)	275	O=C(Nc1cc(C(F)(F)F)cc(C(F)(F)F)c1)Nc1nc(Cc2ccccc2)cs1 [Compound 130]	–	–	–	–	–	–
23.4 (≈ 50.9 µM)	367	O=C(Nc1cc(C(F)(F)F)cc(C(F)(F)F)c1)Nc1nc(CCc2ccccc2)cs1 [Compound 131]	–	–	–	–	–	–
1.35 (≈ 3 µM)	107	O=C(Nc1cc(C(F)(F)F)cc(C(F)(F)F)c1)Nc1nc(-c2cccc(F)c2)cs1 [Compound 135]	–	–	–	–	–	–
6.22 (≈ 12.5 µM)	235	O=C(Nc1cc(C(F)(F)F)cc(C(F)(F)F)c1)Nc1nc(-c2ccc(OC(F)F)cc2)cs1 [Compound 142]	–	–	–	–	–	–
1.40 (≈ 2.8 µM)	129	O=C(Nc1cc(C(F)(F)F)cc(C(F)(F)F)c1)Nc1nc(-c2ccc(C(F)(F)F)cc2)cs1 [Compound 143]	–	–	–	–	–	–
>23.1	3740	O=C(Nc1cc(C(F)(F)F)cc(C(F)(F)F)c1)Nc1nc(-c2ccc(CO)cc2)cs1 [Compound 145]	–	–	–	–	–	–
2.71 (≈ 5.7 µM)	1610	O=C(Nc1cc(C(F)(F)F)cc(C(F)(F)F)c1)Nc1nc(-c2ccc(CCO)cc2)cs1 [Compound 146]	–	–	–	–	–	–
>22.6	20100	O=C(Nc1cc(C(F)(F)F)cc(C(F)(F)F)c1)Nc1nc(-c2cc(CO)no2)cs1 [Compound 154]	–	–	–	–	–	–
1.31 (≈ 3 µM)	259	O=C(Nc1cc(C(F)(F)F)cc(C(F)(F)F)c1)Nc1nc(-c2cccs2)cs1 [Compound 155]	–	–	–	–	–	–
1.22 (≈ 3.01 µM)	295	O=C(Nc1cc(C(F)(F)F)cc(C(F)(F)F)c1)Nc1nc2ccccc2s1 [Compound 156]	–	–	–	–	–	–
1.19 (≈ 2.99 µM)	461	O=C(Nc1ccc(OC(F)F)cc1)Nc1nc(-c2ccc(F)c(F)c2)cs1 [Compound 160]	–	–	–	–	–	–
<0.647	134	O=C(Nc1ccc(SC(F)(F)F)cc1)Nc1nc(-c2ccc(F)c(F)c2)cs1 [Compound 161]	–	–	–	–	–	–
2.40 (≈ 6.01 µM)	364	O=C(Nc1ccc(F)c(C(F)(F)F)c1)Nc1nc(-c2cccc(F)c2)cs1 [Compound 165]	–	–	–	–	–	–
>20.7	661	Cc1cc(-c2csc(NC(=O)Nc3ccc(F)c(C(F)(F)F)c3)n2)ccc1F [Compound 169]	–	–	–	–	–	–
>21.7	910	O=C(Nc1nc(-c2ccc(Cl)cc2)cs1)Nc1cc(Cl)c(Cl)cc1Cl [Compound 170]	–	–	–	–	–	–
5.18 (≈ 12.5 µM)	2850	O=C(NCc1ccc(Cl)c(Cl)c1)Nc1nc(-c2ccc(F)c(F)c2)cs1 [Compound 182]	–	–	–	–	–	–
10.8 (≈ 25 µM)	6380	CC(NC(=O)Nc1nc(-c2ccc(Br)cc2)cs1)C(O)c1ccccc1 (centres unmarked) [Compound 183]	–	–	–	–	–	–

The next lines start with the molecule.

SMILES	MIC [1, 5] [µg/mL]	IC50 [2] [nM]	MIC [1, 4] [µg/mL]	IC50 ([2]; ATCC9604) [nM]	In Vivo, double dose (% of mice rescued) ([3]; 2 × 2 mg/kg s.c.) [% @ 2 × 2 mg/kg]	In Vivo, double dose (% of mice rescued) ([3]; 2 × 20 mg/kg s.c.) [% @ 2 × 20 mg/kg]	In Vivo, single dose (% of mice rescued) ([3]; 2 mg/kg s.c.) [% @ 2 mg/kg]	In Vivo, single dose (% of mice rescued) ([3]; 20 mg/kg s.c.) [% @ 20 mg/kg]
O=C1CC(c2ccccc2)=NN1c1cc(Cl)cc(Cl)c1 [Compound 1, 2-(3,5-Dichloro-phenyl)-5-phenyl-2,4-dihydro-pyrazol-3-one]	–	–	0.122 (≈ 0.4 µM)	540	0	25	–	–
O=C1CC(c2ccccc2)=NN1c1ccc(Cl)c(Cl)c1 [Compound 2]	1.91 (≈ 6.26 µM)	449	–	–	0	0	–	–
COc1ccc(C=C2C(=O)N(c3cc(Cl)cc(Cl)c3)N=C2c2ccccc2)cc1 [Compound 3, 2-(3,5-Dichloro-phenyl)-4-(4-methoxy-benzylidene)-5-phenyl-2,4-dihydro-pyrazol-3-one]	–	–	1.3 (≈ 3.07 µM)	985	25	25	–	–
CC(C)(C)c1cc(NC(=O)Nc2cc(C(F)(F)F)cc(C(F)(F)F)c2)n(-c2ccc(C(F)(F)F)cc2)n1 [Compound 72]	0.808 (≈ 1.5 µM)	58	–	–	–	–	0	0
O=C(Nc1cc(C(F)(F)F)cc(C(F)(F)F)c1)Nc1cc(-c2ccccc2)nn1-c1ccc(C(F)(F)F)cc1 [Compound 76, 1-(3,5-Bis-trifluoromethyl-phenyl)-3-[5-phenyl-2-(4-trifluoromethyl-phenyl)-2H-pyrazol-3-yl]-urea]	–	–	< 0.838	54	–	–	0	0
O=C(Nc1cc(Cl)cc(Cl)c1)Nc1cc(-c2ccccc2)nn1-c1ccc(C(F)(F)F)cc1 [Compound 77]	12.3 (≈ 25 µM)	81	–	–	–	–	0	12.5
O=C(Nc1cc(C(F)(F)F)cc(C(F)(F)F)c1)Nc1cc(-c2cccs2)nn1-c1ccc(C(F)(F)F)cc1 [Compound 83]	0.847 (≈ 1.5 µM)	71	–	–	–	–	0	25
O=C(Nc1cc(Cl)cc(Cl)c1)Nc1cc(-c2cccs2)nn1-c1ccc(C(F)(F)F)cc1 [Compound 84]	6.22 (≈ 12.5 µM)	134	–	–	–	–	0	0
O=C(Nc1cc(C(F)(F)F)cc(C(F)(F)F)c1)Nc1cc(-c2cccnc2)nn1-c1ccc(C(F)(F)F)cc1 [Compound 86]	1.68 (≈ 3 µM)	205	–	–	–	–	0	0
O=C(Nc1cc(C(F)(F)F)cc(C(F)(F)F)c1)Nc1cc(-c2ccncc2)nn1-c1ccc(C(F)(F)F)cc1 [Compound 87]	1.68 (≈ 3 µM)	214	–	–	0	17	25	25
O=C(Nc1cc(C(F)(F)F)cc(C(F)(F)F)c1)Nc1cc(CN2CCOCC2)nn1-c1ccc(C(F)(F)F)cc1 [Compound 89]	>29.1	216	–	–	–	–	0	0
O=C(Nc1cc(Cl)cc(Cl)c1)Nc1cc(-c2ccccc2)nn1-c1ccc(Cl)cc1 [Compound 91]	>22.9	148	–	–	–	–	0	0
O=C(Nc1cc(C(F)(F)F)cc(C(F)(F)F)c1)Nc1ccnn1-c1ccc(Br)cc1 [Compound 92, 1-(3,5-Bis-trifluoromethyl-phenyl)-3-[2-(4-bromo-phenyl)-2H-pyrazol-3-yl]-urea]	–	–	< 0.74	209	–	–	0	0
O=C(Nc1cc(Cl)cc(Cl)c1)Nc1ccnn1-c1ccc(Br)cc1 [Compound 93]	<0.639	138	–	–	–	–	0	25
CCOC(=O)c1cnn(-c2ccc(Br)cc2)c1NC(=O)Nc1cc(C(F)(F)F)cc(C(F)(F)F)c1 [Compound 94]	<0.848	261	–	–	–	–	0	0
Cc1cc(NC(=O)Nc2cc(C(F)(F)F)cc(C(F)(F)F)c2)n(-c2ccc(Br)cc2)n1 [Compound 95, 1-(3,5-Bis-trifluoromethyl-phenyl)-3-[2-(4-bromo-phenyl)-5-methyl-2H-pyrazol-3-yl]-urea]	–	–	< 0.761	268	–	–	25	25
Cc1cc(NC(=O)Nc2cc(Cl)cc(Cl)c2)n(-c2ccc(Br)cc2)n1 [Compound 96]	>22.0	967	–	–	–	–	0	25
